# Results published in patent US20080161327A1, “Substituted 9-Alkyladenines and the Use Thereof” (Aderis Pharmaceuticals, Inc., priority 2005, published 2008).
# pIC50, pKi: −log10 of the molar value. Read-outs that look alike come from different tables or passages of the source.
# How the values were obtained:
# [1] = molecular target: T1, A1 (h) adenosine receptor (Homo sapiens, UniProt P30542); assay: Human recombinant adenosine receptor binding, A1 (h), [3H]DPCPX; conditions: for A1 Selectivity vs. A2A / A1 Selectivity vs. A2B / A1 Selectivity vs. A3: ratio of Ki
# T1 construct: expressed in transfected cells
# T1 sequence (P30542 1-326): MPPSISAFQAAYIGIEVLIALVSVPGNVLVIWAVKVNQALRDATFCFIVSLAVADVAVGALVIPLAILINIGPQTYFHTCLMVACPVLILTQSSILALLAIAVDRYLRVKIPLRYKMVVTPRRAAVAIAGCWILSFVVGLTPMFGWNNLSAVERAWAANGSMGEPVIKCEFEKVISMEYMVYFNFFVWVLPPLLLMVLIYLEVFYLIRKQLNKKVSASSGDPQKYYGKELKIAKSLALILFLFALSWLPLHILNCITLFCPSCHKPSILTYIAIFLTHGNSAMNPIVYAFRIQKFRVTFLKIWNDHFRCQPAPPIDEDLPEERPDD
# Method: (§1) The compounds of the present invention were subjected to in vitro human recombinant adenosine receptor binding assays. Scintillation counting was used as the method of detection.
# (§2) The IC50 values (concentration causing a half-maximal inhibition of control specific binding) and Hill coefficients (nH) were determined by non-linear regression analysis of the competition curves using Hill equation curve fitting (Motulsky, H. and Christopoulos, A., Fitting Models to Biological Data Using Linear and Nonlinear Regression, GraphPad Software Inc. (2003)).
# (§3) The inhibition constants (Ki) were calculated from the Cheng Prusoff equation (Motulsky, H. and Christopoulos, A., supra).
# [2] = molecular target: T2, A1 (h) (agonist site) adenosine receptor (Homo sapiens, UniProt P30542); assay: Human recombinant adenosine receptor binding, A1 (h) (agonist site), [3H]CCPA; conditions: for pKi / pIC50 / nH (Hill coefficient), A1 (h) (agonist site): [3H]CCPA, Table 5; for pKi: Cheng Prusoff
# T2 construct: expressed in transfected cells
# T2 sequence (P30542 1-326): T1 sequence (P30542 1-326)
# Method: as §1, §2, §3
# [3] = molecular target: T3, A2A (h) adenosine receptor (Homo sapiens, UniProt P29274); assay: Human recombinant adenosine receptor binding, A2A (h), [3H]CGS 21680
# T3 construct: expressed in transfected cells
# T3 sequence (P29274 whole entry): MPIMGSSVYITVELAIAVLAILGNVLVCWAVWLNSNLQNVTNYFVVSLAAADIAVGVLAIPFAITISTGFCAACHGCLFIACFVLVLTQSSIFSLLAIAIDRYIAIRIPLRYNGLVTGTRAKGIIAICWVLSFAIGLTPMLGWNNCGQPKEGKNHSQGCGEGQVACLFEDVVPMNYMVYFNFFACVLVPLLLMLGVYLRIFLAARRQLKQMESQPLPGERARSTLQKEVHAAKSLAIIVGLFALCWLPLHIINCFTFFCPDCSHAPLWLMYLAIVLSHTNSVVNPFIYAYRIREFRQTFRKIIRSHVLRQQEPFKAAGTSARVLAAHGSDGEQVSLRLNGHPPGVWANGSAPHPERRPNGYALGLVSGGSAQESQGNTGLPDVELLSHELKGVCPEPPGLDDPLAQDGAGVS
# Method: as §1, §2, §3
# [4] = molecular target: T4, A2B (h) adenosine receptor (Homo sapiens, UniProt P29275); assay: Human recombinant adenosine receptor binding, A2B (h), [3H]MRS 1754; conditions: for pKi: Table 8, read-out: Affinity Ki, A2B
# T4 construct: expressed in transfected cells
# T4 sequence (P29275 1-332): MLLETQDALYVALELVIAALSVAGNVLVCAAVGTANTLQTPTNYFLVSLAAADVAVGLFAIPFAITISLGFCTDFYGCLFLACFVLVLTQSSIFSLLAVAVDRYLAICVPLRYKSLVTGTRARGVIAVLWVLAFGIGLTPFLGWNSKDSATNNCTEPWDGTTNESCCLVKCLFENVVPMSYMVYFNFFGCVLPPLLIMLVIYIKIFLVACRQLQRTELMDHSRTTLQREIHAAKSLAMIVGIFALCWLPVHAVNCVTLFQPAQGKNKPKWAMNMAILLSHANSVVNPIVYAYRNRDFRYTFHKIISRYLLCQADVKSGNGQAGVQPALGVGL
# Method: as §1, §2, §3
# [5] = molecular target: T5, A3 (h) adenosine receptor (Homo sapiens, UniProt P0DMS8); assay: Human recombinant adenosine receptor binding, A3 (h), [3H]AB-MECA; conditions: for pKi: Table 8, read-out: Affinity Ki, A3
# T5 construct: expressed in transfected cells
# T5 sequence (P0DMS8 1-318): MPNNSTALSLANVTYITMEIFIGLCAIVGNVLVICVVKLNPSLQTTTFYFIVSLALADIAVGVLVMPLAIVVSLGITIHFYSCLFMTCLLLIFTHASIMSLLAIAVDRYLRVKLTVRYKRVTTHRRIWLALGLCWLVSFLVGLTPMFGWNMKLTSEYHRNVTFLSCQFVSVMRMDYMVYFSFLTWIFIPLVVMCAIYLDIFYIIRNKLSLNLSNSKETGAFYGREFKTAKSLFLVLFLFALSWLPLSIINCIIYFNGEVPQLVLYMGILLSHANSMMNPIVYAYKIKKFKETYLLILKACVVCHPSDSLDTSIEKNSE
# Method: as §1, §2, §3
# adenosine A1 receptors = molecular target: T6, adenosine A1 receptors (Cavia porcellus, UniProt P47745); assay: Adenosine A1 in vitro functional test, negative inotropic response in left atria (Schild plot); format: cell-based; conditions: guinea pig left atria, agonist NECA or CPA, read-out: KB (antagonist dissociation constant)
# T6 construct: from tissue; host or cells: guinea pig left atria
# T6 sequence (P47745 1-326): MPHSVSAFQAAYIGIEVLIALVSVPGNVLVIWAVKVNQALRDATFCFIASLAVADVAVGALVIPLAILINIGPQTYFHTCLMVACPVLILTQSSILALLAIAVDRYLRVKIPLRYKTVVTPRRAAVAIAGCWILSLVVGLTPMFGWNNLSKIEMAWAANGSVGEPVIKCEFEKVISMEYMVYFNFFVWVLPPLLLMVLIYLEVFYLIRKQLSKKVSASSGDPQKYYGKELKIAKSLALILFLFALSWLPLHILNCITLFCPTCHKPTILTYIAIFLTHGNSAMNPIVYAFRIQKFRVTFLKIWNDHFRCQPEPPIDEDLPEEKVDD
# Method: A1 assay—Negative inotropic response (Barrett, R. J. et al., J. Pharmacol. Exp. Ther. 265:227-236 (1993)): Guinea pig left atria were placed in organ baths filled with Krebs Henseleit solution gassed with 95% O2 and 5% CO2 and maintained at a temperature of 31° C. An initial resting tension of 1 g was placed on each tissue, which was allowed to equilibrate. Atria were stimulated electrically to produce twitch responses. A fixed concentration of the test compound was added and the tissue was allowed to equilibrate for 1 hour before cumulative additions of an adenosine agonist (either 5′-N-ethylcarboxamidoadenosine (NECA) or N^6-cyclopentyladenosine (CPA)) to generate a dose response curve. This procedure was repeated with different concentrations of test compounds to generate a family of dose response curves. Schild plots were constructed from the resultant concentration-effect curves, and KB (antagonist dissociation constant) values were obtained. The results presented in Table 9 are expressed as KB values (concentrations of test compound such that one-half of the tissue adenosine receptor population is occupied by the test compound).
# [6] = Table 8, read-out: Affinity Ki, A1
# [7] = [3H]DPCPX, Cheng Prusoff, Table 5, read-out: Ki, A1 (h)
# [8] = Cheng Prusoff, Table 6, read-out: Ki, A2A (h)
# [9] = Table 8, read-out: Affinity Ki, A2A
"pKi [1, 6]","pKi [1, 7]","pIC50 ([1]; [3H]DPCPX, Table 5)","nH (Hill coefficient), A1 (h) ([1]; [3H]DPCPX, Table 5)",A1 Selectivity vs. A2A ([1]; Table 8),A1 Selectivity vs. A2B ([1]; Table 8),A1 Selectivity vs. A3 ([1]; Table 8),pKi [2],pIC50 [2],"nH (Hill coefficient), A1 (h) (agonist site) [2]","pKi [3, 8]",pIC50 ([3]; Table 6),"nH (Hill coefficient), A2A (h) ([3]; Table 6)","pKi [3, 9]",pKi [4],pKi [5],Kb (adenosine A1 receptors) [nM],SMILES,also measured
5.96,5.96,5.74,1.0,75,>3000,>3000,5.74,5.37,1.0,4.09,4.00,1.4,4.09,< 4.00,< 4.00,300,"CC(C)N(C)c1nc2c(NC3CC4CC3CC4OCCCS(=O)(=O)O)ncnc2n1C (single isomer, unassigned) [1 (−isomer)]",
7.49,7.49,7.28,0.9,81,>3000,>3000,7.07,6.68,1.3,5.59,5.49,0.8,5.59,< 4.00,< 4.00,32000,"CC(C)N(C)c1nc2c(NC3CC4CC3CC4OCCCS(=O)(=O)O)ncnc2n1C (single isomer, unassigned) [Compound 1 (+isomer)]","pIC50 ([5]; Table 7, N.C. = not calculable, less than 25% inhibition at the highest tested concentration): < 4.00"
,,,,,,,,,,,,,,,,85000,"CC(C)N(C)c1nc2c(N[C@H]3CC[C@H](OCCCS(=O)(=O)O)CC3)ncnc2n1C [Compound 6, N^6-[trans-4′-(^3-sulfopropoxy)cyclohexyl]-8-isopropylmethylamino-9-methyladenine]",
,,,,,,,,,,,,,,,,,"CC(C)N(C)c1nc2c(NC3CC4CC3CC4O)[n+](C)cnc2n1C.[Cl-] (stereo not drawn) [Compound 14, N^6-(endo-5′-hydroxynorbornyl)-1-methyl-8-isopropylmethylamino-9-methyladenine chloride]","Percent Inhibition of Control Specific Binding, A1 (h) ([1]; compound at 1×10^−5M, CHO cells, [3H]DPCPX 1 nM): −1; Percent Inhibition of Control Specific Binding, A1 (h) (agonist site) ([2]; compound at 1×10^−5M, CHO cells, [3H]CCPA 1 nM): 18; Percent Inhibition of Control Specific Binding, A2A (h) ([3]; compound at 1×10^−5M, HEK-293 cells, [3H]CGS 21680 6 nM): −9; Percent Inhibition of Control Specific Binding, A2B (h) ([4]; compound at 1×10^−5M, HEK-293 cells, [3H]MRS 1754 0.5 nM): 5; Percent Inhibition of Control Specific Binding, A3 (h) ([5]; compound at 1×10^−5M, HEK-293 cells, [3H]AB-MECA 0.15 nM): 5"
